According to BindingDB's records for doi:10.1021/jm800328v (Yale University, 2008):
pIC50: −log10 of the molar value.

Target: T1, ATP phosphoribosyltransferase (Mycobacterium tuberculosis (strain ATCC 25618 / H37Rv), UniProt P9WMN1)
T1 sequence (P9WMN1 whole entry): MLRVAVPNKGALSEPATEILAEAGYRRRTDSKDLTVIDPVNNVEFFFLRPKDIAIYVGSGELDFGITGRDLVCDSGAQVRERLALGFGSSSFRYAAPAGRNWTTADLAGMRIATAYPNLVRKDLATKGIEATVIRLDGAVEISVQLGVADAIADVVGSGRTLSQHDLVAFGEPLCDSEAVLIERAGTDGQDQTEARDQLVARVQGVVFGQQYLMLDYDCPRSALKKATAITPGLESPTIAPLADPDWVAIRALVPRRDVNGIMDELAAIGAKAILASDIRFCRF
Test: Enzyme Inhibition Assay
Settings: pH 8.5; 22 °C
Protocol: Inhibition activity was determined using an assay that followed the production of PR-ATP spectrophotometrically. Enzymatic reaction was initiated by adding the substrate PRPP to reaction mixtures containing HisG enzyme and test compounds, and absorbance of product was monitored at 290 nm for 5 min until it formed a plateau.

Row | SMILES | pIC50
1 | O=C(CSc1nnc(-c2ccccc2)c(-c2ccccc2)n1)Nc1nccs1 [2-[(5,6-diphenyl-1,2,4-triazin-3-yl)sulfanyl]-N-(1,3-thiazol-2-yl)acetamide] | 5.40
2 | COc1ccc(COC(=O)C2=C(C)N=C3CC(c4cccs4)CC(=O)C3C2c2cccs2)cc1 (configuration not stated) [(4-methoxyphenyl)methyl 2-methyl-5-oxo-4,7-bis(thiophen-2-yl)-1,4,5,6,7,8-hexahydroquinoline-3-carboxylate] | 5.00
